Earlier results, collected in patent US20250195486A1 (Closed Loop Medicine Ltd., priority 2023, published 2025).
Entries after “also recorded” stand apart in the source; their conditions may differ. Where two headings read alike, the source gives them in different places.

Tests used:
patients with NVAF [1] = settings: 12 weeks
P-gp = P-gp (Homo sapiens, UniProt P08183)
patients with NVAF [2] = settings: patient with normal renal function
[3] = population mean; Song et al. (2014), Phases I and II
[4] = Niebecker et al. (2015)
[5] = Salazar et al. (2012)
[6] = not given; remark: listed apart in the source
[7] = Yin et al. (2014)
patients with AF = settings: atrial fibrillation
[8] = population mean, Phases I and III
[9] = normally distributed, mean 0, Krekels et al. (2016) model
[10] = population mean, Krekels et al. (2016), Phases I and III
[11] = population mean, Phases I and II
[12] = population mean, Phases I, II and III

P-gp, sequence (P08183 whole entry): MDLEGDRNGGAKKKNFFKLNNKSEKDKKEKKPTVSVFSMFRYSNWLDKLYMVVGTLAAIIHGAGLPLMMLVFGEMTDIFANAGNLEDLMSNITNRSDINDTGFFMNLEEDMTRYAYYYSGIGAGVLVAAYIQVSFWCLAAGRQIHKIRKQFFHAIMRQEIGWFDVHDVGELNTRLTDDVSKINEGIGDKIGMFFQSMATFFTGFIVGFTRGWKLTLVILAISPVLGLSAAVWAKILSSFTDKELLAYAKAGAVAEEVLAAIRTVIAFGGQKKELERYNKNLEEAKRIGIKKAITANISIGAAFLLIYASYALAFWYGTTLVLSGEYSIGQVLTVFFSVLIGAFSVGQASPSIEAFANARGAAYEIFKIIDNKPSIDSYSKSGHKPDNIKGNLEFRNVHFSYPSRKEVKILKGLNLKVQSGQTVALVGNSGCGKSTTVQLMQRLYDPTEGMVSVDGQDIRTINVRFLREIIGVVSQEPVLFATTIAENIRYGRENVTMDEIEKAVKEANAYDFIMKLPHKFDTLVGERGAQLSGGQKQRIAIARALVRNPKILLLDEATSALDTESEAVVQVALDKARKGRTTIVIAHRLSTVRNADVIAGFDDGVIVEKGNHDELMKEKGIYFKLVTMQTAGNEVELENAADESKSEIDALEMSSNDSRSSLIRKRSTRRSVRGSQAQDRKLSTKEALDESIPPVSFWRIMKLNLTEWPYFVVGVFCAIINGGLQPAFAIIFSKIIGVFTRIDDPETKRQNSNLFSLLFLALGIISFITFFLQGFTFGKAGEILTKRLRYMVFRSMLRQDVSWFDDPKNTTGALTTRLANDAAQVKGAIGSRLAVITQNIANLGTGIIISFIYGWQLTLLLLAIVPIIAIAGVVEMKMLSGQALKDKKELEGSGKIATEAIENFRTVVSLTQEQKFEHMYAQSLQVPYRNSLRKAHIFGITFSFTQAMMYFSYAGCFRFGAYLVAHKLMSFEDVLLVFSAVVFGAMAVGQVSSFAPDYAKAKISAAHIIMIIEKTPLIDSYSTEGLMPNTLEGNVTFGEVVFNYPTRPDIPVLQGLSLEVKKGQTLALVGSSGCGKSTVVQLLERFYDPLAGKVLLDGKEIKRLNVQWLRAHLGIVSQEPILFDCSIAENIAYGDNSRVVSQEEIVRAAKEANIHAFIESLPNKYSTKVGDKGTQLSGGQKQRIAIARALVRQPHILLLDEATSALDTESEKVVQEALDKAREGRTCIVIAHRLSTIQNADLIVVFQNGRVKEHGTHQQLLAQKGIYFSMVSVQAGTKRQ

CN1CCc2nc(C(=O)N[C@@H]3C[C@@H](C(=O)N(C)C)CC[C@@H]3NC(=O)C(=O)Nc3ccc(Cl)cn3)sc2C1 [edoxaban]
risk of bleeding, 30 mg twice-daily vs 60 mg once-daily (patients with NVAF [1]): greater | P-gp substrate status (P-gp): substrate of P-gp | trough edoxaban level required to reduce the risk of a major bleeding event below 2% (patients with NVAF [2]): < 30 ng/mL | trough edoxaban level required to reduce the risk of a major bleeding event below […] (patients with NVAF [2]): < 40 ng/mL | CL/F [3]: 32.1 L/h | Ka [3]: 3.54 h⁻¹ | Lag time [3]: 0.39 h | Q/F [3]: 8.85 L/h | Vc/F [3]: 214 L | Vp/F [3]: 134 L | Significant covariates: Body weight (PK parameters influenced) [4]: CLNR/F, Q/F,; also recorded: Vc/F, Vp/F | Significant covariates: CRCL (PK parameters influenced) [4]: CL/F | Significant covariates: P-gp inhibition (PK parameters influenced) [4]: CL/F, F | Significant covariates: Race (PK parameters influenced) [4]: Vc/F | CL/F (CLNR/F) ([4]; non-renal clearance, population mean, Phases I and III): 15.5 L/h | Ka [4, 8]: 3.35 h⁻¹ | Lag time [4, 8]: 0.25 h | Q/F [4, 8]: 5.92 L/h | Vc/F [4, 8]: 209 L | Vp/F [4, 8]: 92.3 L | Significant covariates: CRCL (PK parameters influenced) (Krekels et al. (2016)): CL/F | CL/F (CLNR/F) (non-renal clearance, population mean, Krekels et al. (2016), Phases I and III): 13.8 L/h | variance of ηCL/F (between-subject variability) [9]: 0.0185 | variance of ηQ/F (between-subject variability) [9]: 0.2285 | variance of ηVc/F (between-subject variability) [9]: 0.04623 | variance of ηVp/F (between-subject variability) [9]: 0.2285 | Ka [10]: 2.16 h⁻¹ | Lag time [10]: 0.25 h | Q/F [10]: 5.75 L/h | Vc/F [10]: 194 L | Vp/F [10]: 88.6 L | Significant covariates: Body weight (PK parameters influenced) [5]: Vc/F | Significant covariates: CRCL (PK parameters influenced) [5]: CL/F | Significant covariates: Food (PK parameters influenced) [5]: Ka | Significant covariates: P-gp inhibition (PK parameters influenced) [5]: CL/F, Ka, F | Significant covariates: Patient status (PK parameters influenced) [5]: Vc/F | CL/F [5, 11]: 36 L/h | F [5, 11]: 1 | Ka [5, 11]: 5.87 h⁻¹ | Lag time [5, 11]: 0.42 h | Q/F [5, 11]: 6.42 L/h | Vc/F [5, 11]: 244 L | Vp/F [5, 11]: 90.3 L | Metabolism (extent) ([6]; by CES1, CYP3A4 and glucuronidation): < 30% | time of peak plasma concentrations ([6]; following oral administration): 1 to 2 h | time of peak levels ([6]; immediate-release doses, taken without food): 1 to 2 h | time of peak levels with food ([6]; immediate-release doses, with food vs without food): an hour later | Renal clearance as share of total body clearance ([6]; in vivo): ~50% | accumulation upon repeat dosing ([6]; in vivo): minimal accumulation | effect of food on rate of absorption ([6]; in vivo): decreases the rate of absorption | effect of food on total exposure ([6]; in vivo): does not affect | increase of total systemic exposure (AUC∞) ([6]; moderate or severe renal impairment vs normal renal function): almost two-fold | bioavailability ([6]; oral): approximately 62% | terminal half-life ([6]; oral administration): 10 to 14 h | dose linearity of pharmacokinetics ([6]; over the therapeutic range of doses): linear | unchanged drug found in the faeces ([6]; partly due to biliary elimination): 30-50% | Significant covariates: Age (PK parameters influenced) [7]: CL/F, Ka | Significant covariates: Body weight (PK parameters influenced) [7]: CL/F, Vc/F | Significant covariates: CRCL (PK parameters influenced) [7]: CL/F | Significant covariates: P-gp inhibition (PK parameters influenced) [7]: Vc/F, Ka, F | CL/F [7, 12]: 11.4 L/h | F [7, 12]: 0.58 | Ka [7, 12]: 1.08 h⁻¹ | Lag time [7, 12]: 0.25 h | Q/F [7, 12]: 2.73 L/h | Vc/F [7, 12]: 151 L | Vp/F [7, 12]: 42.9 L

CC(=O)CC(c1ccccc1)c1c(O)c2ccccc2oc1=O (centres unmarked) [warfarin]
reduction of stroke (patients with AF): about 60%
